The structures appear in SMILES notation. Where only a bound is given, the exact number is not on record here.

This note sets out measurements from US11458138B2 (Novartis AG, priority 2017, dated 2022).

The test system of assay [1] is Phospho-YAP (SER127) in HaCaT cells. The assay can be described thus: pYAP HTRF Assay (HaCaT Cells). Type of assay: cell-based, human. As to conditions: Homo sapiens, 2 hours. The method in brief:
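Phospho-YAP (Ser127) was measured by HTRF (665 nm/620 nm ratio) in HaCaT cells. Cells were grown 48 hours at 37° C at 5500 cells/well, exposed to compound for 2 hours, and incubated with detection reagents for 20 hrs at room temperature.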
For orientation: In TR-FRET formats the signal depends on donor and acceptor labels being close together.

The target in a further assay is LATS1 (Homo sapiens (Human), UniProt O95835). Put plainly: LATS1 biochemical assay (Table 1A, Compound Examples 1-290; method in the earlier part).
Chain of LATS1 (O95835 whole entry, looked up): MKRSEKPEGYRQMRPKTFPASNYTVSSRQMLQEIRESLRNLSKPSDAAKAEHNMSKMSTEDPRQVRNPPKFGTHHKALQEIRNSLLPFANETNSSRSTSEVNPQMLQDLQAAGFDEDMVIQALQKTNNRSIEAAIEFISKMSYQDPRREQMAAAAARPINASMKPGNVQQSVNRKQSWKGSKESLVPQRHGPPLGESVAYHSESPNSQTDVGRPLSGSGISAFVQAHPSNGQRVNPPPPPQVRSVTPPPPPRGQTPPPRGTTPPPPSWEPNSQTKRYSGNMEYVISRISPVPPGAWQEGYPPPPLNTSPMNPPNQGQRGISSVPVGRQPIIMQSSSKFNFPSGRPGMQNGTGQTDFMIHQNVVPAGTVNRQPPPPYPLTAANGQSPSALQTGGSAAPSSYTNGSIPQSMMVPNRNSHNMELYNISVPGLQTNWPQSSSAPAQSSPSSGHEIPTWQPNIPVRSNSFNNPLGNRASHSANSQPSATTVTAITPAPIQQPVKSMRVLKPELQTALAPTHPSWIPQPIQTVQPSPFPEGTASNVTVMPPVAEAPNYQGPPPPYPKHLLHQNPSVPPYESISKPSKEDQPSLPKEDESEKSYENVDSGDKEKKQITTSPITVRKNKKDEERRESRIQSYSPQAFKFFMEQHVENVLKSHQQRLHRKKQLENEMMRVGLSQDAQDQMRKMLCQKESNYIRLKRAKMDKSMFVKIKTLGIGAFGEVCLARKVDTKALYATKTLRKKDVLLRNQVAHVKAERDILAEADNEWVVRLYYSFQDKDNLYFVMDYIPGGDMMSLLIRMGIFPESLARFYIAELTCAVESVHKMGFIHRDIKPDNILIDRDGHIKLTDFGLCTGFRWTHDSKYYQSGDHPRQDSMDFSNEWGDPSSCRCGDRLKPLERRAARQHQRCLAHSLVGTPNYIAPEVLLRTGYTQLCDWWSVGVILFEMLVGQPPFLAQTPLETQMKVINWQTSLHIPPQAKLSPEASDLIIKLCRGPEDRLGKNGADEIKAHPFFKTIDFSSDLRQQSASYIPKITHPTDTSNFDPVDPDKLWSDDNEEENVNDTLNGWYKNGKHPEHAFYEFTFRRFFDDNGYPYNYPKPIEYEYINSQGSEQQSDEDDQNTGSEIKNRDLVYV
Chain of LATS1 (Q7L9L4 whole entry partner, looked up): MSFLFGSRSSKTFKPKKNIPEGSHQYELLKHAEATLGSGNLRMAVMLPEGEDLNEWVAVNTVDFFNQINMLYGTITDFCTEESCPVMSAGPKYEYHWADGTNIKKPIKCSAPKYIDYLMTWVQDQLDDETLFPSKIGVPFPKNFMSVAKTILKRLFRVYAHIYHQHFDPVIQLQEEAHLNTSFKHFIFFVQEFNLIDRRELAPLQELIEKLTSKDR
The test system of assay [2] is Phospho-YAP (Ser127) in JHH-5 cells. Put plainly: pYAP HTRF Assay (JHH-5 cells). It is filed as cell-based. As to conditions: 2 hours. As for the experimental part:
Briefly, JHH-5 cells are suspended at 0.48×10^6 cells/ml in William's E medium without phenol-red (Thermo Fisher Scientific Gibco catalog number A1217601) supplemented with 10% (v/v) heat-inactivated fetal bovine serum (Thermo Fisher Scientific Gibco catalog number 16140071) and penicillin-streptomycin at 100 U/ml each (Thermo Fisher Scientific Gibco catalog number 15140122). Cells are dispensed into 384well clear bottom culture plates (50 ul/well, at 24000 cells per well, Greiner catalog number 781091), and incubated for 24 hours in a cell culture incubator at 37° C. Test compounds are transferred into culture plates containing JHH-5 cells using an Echo550 (Labcyte) acoustic dispenser (50 nl/well), followed by incubation for 2 hours at 37° C. Lysis buffer (part of CisBio kit catalog number 64YAPPEI) is added to the assay plates as a four-fold concentrate (corresponding to 16 ul/well) and incubated for 30 minutes at room temperature with agitation. Lysate is transferred from culture plates into white low-volume 384well assay plates (12 ul/well, Greiner catalog number 784075), followed by the addition of 3 ul/well of detection antibodies (part of CisBio kit catalog number 64YAPPEI: 1:40 dilution of each pYAP d2 antibody and pYAP cryptate antibody stocks). The plates are sealed and incubated overnight (18 hours) at room temperature protected from light. Plates are read on an EnVision plate reader (Perkin Elmer) at emission wavelengths of 665 nm and 620 nm. The HTRF signal ratio x per well is calculated as [x=Signal(665 nm)/Signal(620 nm)×10000] as specified in the manufacturer's protocol.

Assay [3] concerns YAP nuclear translocation in HaCaT cells. Put plainly: YAP Translocation Assay (HaCaT Cells). It is filed as cell-based, human. As to conditions: Homo sapiens, 24 hours. The essentials:
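HaCaT cells (20,000/well) in DMEM + 10% FBS were plated overnight at 37° C, then exposed to compound for 24 h at 37° C. Cells were fixed with PFA, permeabilized with 0.1% Triton/1.5% BSA and imaged by high-content imaging.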

In general, IC50 refers to the concentration at which inhibition is half-maximal. The low end stands for greater potency, the high end for weaker potency. The term EC50 denotes the concentration needed to bring the measured effect to its halfway point. As to `CC(Nc1nc(-c2ccncc2)nc2cnccc12)(C(=O)O)C(F)(F)F` (centres unmarked) [Example 84, 3,3,3-trifluoro-2-methyl-2-{[2-(pyridin-4-yl)pyrido[3,4-d]pyrimidin-4-yl]amino}propanoic acid], the figures for the IC50 (in assay [1]; at LATS1; in assay [2]) were 65200 nM, 21 nM and above 10000 nM, respectively. For the same compound, in assay [3], the EC50 is above 20000 nM.
On to `COCC(C)(C)Nc1nc(-c2ccncc2)nc2cnccc12` [Example 7, N-(1-methoxy-2-methylpropan-2-yl)-2-(pyridin-4-yl)pyrido[3,4-d]pyrimidin-4-amine], for which the IC50 in assay [1] was 165 nM; on LATS1 it was 2 nM; in assay [2], 1600 nM. Besides, the EC50 in assay [3] was found to be 733 nM.
The corresponding values for `C[C@]1(Nc2nc(-c3ccncc3)nc3cnccc23)C[C@@H](O)C1` [Example 70, (1r,3s)-3-methyl-3-{[2-(pyridin-4-yl)pyrido[3,4-d]pyrimidin-4-yl]amino}cyclobutan-1-ol] are 422 nM, 3 nM, 4000 nM and 1680 nM.
Take `Cn1nccc1-c1nc(NC(C)(C)C)c2ccncc2n1` [Example 184, N-tert-butyl-2-(1-methyl-1H-pyrazol-5-yl)pyrido[3,4-d]pyrimidin-4-amine]: the IC50 in assay [1] was 2510 nM; against LATS1, 4 nM; in assay [2], 6500 nM. In assay [3], this compound returned an EC50 of 2810 nM.
Turning to `CC1(Nc2nc(-c3ccncc3)nc3cnccc23)CC1` [Example 99, N-(1-methylcyclopropyl)-2-(pyridin-4-yl)pyrido[3,4-d]pyrimidin-4-amine], the IC50 in assay [1] stood at 113 nM; on LATS1, 1 nM; in assay [2], 5700 nM. Further, in assay [3], the EC50 is 606 nM.
Regarding `CC(C)(C)Nc1nc(-c2c[nH]nc2C(F)(F)F)nc2cnccc12` [Example 115, N-tert-butyl-2-[3-(trifluoromethyl)-1H-pyrazol-4-yl]pyrido[3,4-d]pyrimidin-4-amine], the IC50 came to 1050 nM in assay [1], 2 nM against LATS1 and 3400 nM in assay [2]. The same compound registered an EC50 in assay [3] of 1660 nM.
Regarding `CN(C)CCC(C)(C)Nc1cc(-c2ccncc2)nc2cnccc12` [Example 265, dimethyl(3-methyl-3-{[2-(pyridin-4-yl)-1,7-naphthyridin-4-yl]amino}butyl)amine], the IC50 in assay [1] was 22300 nM; against LATS1 it was 8 nM; in assay [2] it was above 10000 nM. The same compound displayed an EC50 in assay [3] above 20000 nM.
The corresponding values for `CC[C@H](C)Nc1cc(-c2ccncc2)nc2cnccc12` [Example 256, N-[(2S)-butan-2-yl]-2-(pyridin-4-yl)-1,7-naphthyridin-4-amine] are 11100 nM, 8 nM, above 10000 nM and 15600 nM.
The corresponding values for `CC(C)(Nc1nc(-c2ccncc2F)nc2cnccc12)C(F)(F)F` [Example 134, 2-(3-fluoropyridin-4-yl)-N-(1,1,1-trifluoro-2-methylpropan-2-yl)pyrido[3,4-d]pyrimidin-4-amine] are 539 nM, 1 nM, 1000 nM and 1190 nM.
With `CCN(C)c1nc(-c2ccncc2)nc2cnccc12` [Example 10, N-ethyl-N-methyl-2-(pyridin-4-yl)pyrido[3,4-d]pyrimidin-4-amine], the IC50 in assay [1] turned out to be 2960 nM; against LATS1, 3 nM; in assay [2] it was 8700 nM. The EC50 in assay [3] was 3550 nM.
The corresponding values for `CC(C)(CN)Nc1nc(-c2ccncc2)nc2cnccc12` [Example 110, N-(1-amino-2-methylpropan-2-yl)-2-(pyridin-4-yl)pyrido[3,4-d]pyrimidin-4-amine] are 2970 nM, 2 nM, 1500 nM and 15300 nM.
